Here are results for 15 compounds from patent US20250109120A1, “INDOLINE DERIVATIVES FOR TREATMENT AND/OR PREVENTION OF TUMOR OR CELL PROLIFERATIVE AND FIBROSIS DISEASES” (NATIONAL TAIWAN UNIVERSITY, priority 2023, published 2025).

For one assay, the target named is CDK8 (Homo sapiens (Human), UniProt P49336). Kind of assay: LanthaScreen Eu Binding Assay, Thermo Fisher SelectScreen kinase service. Particulars: for IC50: read-out: Inhibition of CDK8 IC50; for inhibition at 10 µM: read-out: CDK8 Inhibition percentage at 10 μM. As to the method: Compounds were tested for kinase inhibitory activity using the Thermo Fisher SelectScreen service (www.thermofisher.com/selectscreen). For CDK8, the LanthaScreen Eu Binding Assay was used. Briefly, the assay employed utilizes a fluorescent tracer to a given kinase. This is used to detect the addition of an anti-tag antibody. When the tracer and antibody bind to the targeted kinase, the Forster resonance energy transfer is measured. When a kinase inhibitor is added to the assay, the tracer/kinase binding will be disrupted, producing low FRET detection and indicating kinase inhibitory activity. Evaluation of kinase activity of additional kinase targets utilized the LanthaScreen binding assay or the Z′-Lyte activity assay provided by Thermo Fisher SelectScreen service. The IC50 values were determined using sequential doses, and the inhibition curves were provided by Thermo Fisher Scientific.
Sequence of CDK8 (P49336 whole entry, looked up): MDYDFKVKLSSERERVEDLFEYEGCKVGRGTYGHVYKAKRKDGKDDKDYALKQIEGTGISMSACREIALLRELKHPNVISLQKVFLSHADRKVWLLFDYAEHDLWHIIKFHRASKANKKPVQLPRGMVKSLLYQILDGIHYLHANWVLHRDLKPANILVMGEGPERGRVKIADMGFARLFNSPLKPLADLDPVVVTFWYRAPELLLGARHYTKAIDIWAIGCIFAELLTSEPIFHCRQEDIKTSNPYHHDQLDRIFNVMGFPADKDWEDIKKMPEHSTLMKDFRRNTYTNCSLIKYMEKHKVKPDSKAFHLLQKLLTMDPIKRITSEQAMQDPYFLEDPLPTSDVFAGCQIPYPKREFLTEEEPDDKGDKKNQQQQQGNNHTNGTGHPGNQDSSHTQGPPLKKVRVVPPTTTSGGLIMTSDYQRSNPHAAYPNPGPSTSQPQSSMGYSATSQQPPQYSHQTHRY
Sequence of CDK8 (P24863 whole entry partner, looked up): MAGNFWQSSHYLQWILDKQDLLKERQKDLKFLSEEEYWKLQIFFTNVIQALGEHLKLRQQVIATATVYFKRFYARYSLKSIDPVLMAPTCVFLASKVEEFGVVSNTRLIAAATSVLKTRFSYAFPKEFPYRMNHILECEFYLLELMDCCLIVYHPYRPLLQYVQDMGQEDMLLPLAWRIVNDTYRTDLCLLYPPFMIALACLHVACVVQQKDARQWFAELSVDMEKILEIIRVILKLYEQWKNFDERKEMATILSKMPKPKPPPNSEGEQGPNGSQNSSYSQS
The fragment-based drug design strategy in this study led to optimized CDK8 inhibitors with promising results. CDK8-inhibitory activities of the compounds (a-n) designed by this fragment-based drug design strategy were tested using the SelectScreen kinase service of ThermoFisher Scientific. The inhibitory effects of the 14 compounds and the referenced compound were tested at a concentration of 10 μM.

Assay [1] concerns A549 cells. The assay is described as follows: Wound-healing migration assay. The assay is classed as cell-based, human. As to conditions: compounds 2 μM, senexin A 5 μM, pirfenidone 1 mM; TGF-β1 10 ng/mL; 24 or 48 h. As to the method:
A549 cells were incubated in six-well plates until reaching 90% confluency, scratched with a pipette tip, and immediately photographed (0 h). Cells were incubated with or without compound k (2 μM), senexin A (5 μM), or pirfenidone (1 mM) for 1 h, then treated with TGF-β1 (10 ng/mL) and allowed to migrate into the wound area for 24 or 48 h, and photographed. Cell migration into the wound was quantified using ImageJ software; the solid line indicates time zero. Quantitative assessment of the mean number of cells in the denuded zone is expressed as the mean±SEM from three independent experiments. **p<0.01 compared to the control group; ##p<0.01 and ###p<0.001 compared to TGF-β1-treated group.
Cells were seeded in six-well plates and cultured to 90% confluency, at which time the cellular monolayer was wounded with a sterile 10-μL pipette tip and washed with culture medium to remove detached cells. Cells were incubated in the presence or absence of test compounds for 24 h and photographed. The wound closure percentages were subsequently determined using ImageJ software (National Institutes of Health, USA).

The subject of assay [2] is A549 cells. The assay is described as follows: TGF-β1-induced EMT protein expression, western blot. The assay is classed as cell-based, human. Particulars: test compounds 2 μM, senexin A 5 μM, pirfenidone 1 mM; TGF-β1 10 ng/mL. As to the method:
FIGS. 4A-4B show the inhibition of epithelial-to-mesenchymal transition protein expressions by CDK8 inhibitors in human alveolar epithelial cells. […] Cell lysates were subjected to a Western blot analysis using the indicated antibodies. Results are shown as the mean t SEM from three independent experiments. *p<0.05, and ***p<0.001 compared to the control group; #p<0.05, ##p<0.01, and ###p<0.001 compared to the TGF-β1-treated group. […] Cell viabilities were determined by an MTT assay. Results are shown as the mean t SEM of three independent experiments.
(§1) Cells (106) were incubated for 10 min at 4° C. in lysis buffer (20 mM HEPES at pH 7.4, 2 mM EGTA, 50 mM β-glycerophosphate, 0.1% Triton X-100, 10% glycerol, 1 mM DTT, 1 μg/mL of leupeptin, 5 μg/mL of aprotinin, 1 mM phenylmethylsulfonyl fluoride, and 1 mM sodium orthovanadate), scraped off, incubated on ice for an additional 10 min, and centrifuged at 17,000 g for 30 min at 4° C. Protein samples (20 μg) were then electrophoresed on SDS-polyacrylamide gel electrophoresis (PAGE) gels and transferred to a nitrocellulose membrane, which was then blocked by incubation for 30 min at room temperature with 5% bovine serum albumin (BSA) in Tris-buffered saline with 0.1% Tween-20 (TBST). Immunoblotting was performed by overnight incubation at 4° C. with primary antibodies in TBST, followed by incubation for 1 h at room temperature with horseradish peroxidase (HRP)-conjugated secondary antibodies. Bound antibodies were measured using enhanced chemiluminescence (ECL) reagent (GE Healthcare, UK) and exposed to photographic film.

Assay [3] has as its system A549 cells. Kind of assay: TGF-β1-induced oxidative stress (MDA, Nox4). The assay is classed as cell-based, human. As to conditions: compounds 2 μM, TGF-β1 10 ng/ml 24 h. As to the method:
A549 cells were incubated with compounds k, b, a (2 μM), senexin A (5 μM), or pirfenidone (1 mM) for 1 h, followed by treatment with 10 ng/ml TGF-β1 for a further 24 h. Malondialdehyde (MDA) (FIG. 10A) and Nox4 (FIG. 10B) levels were detected. ***p<0.001 compared to the control group; #p<0.05, ##p<0.01, and ###p<0.001 compared to the TGF-β1-treated group.
An end product of lipid peroxidation, malondialdehyde (MDA), was measured by spectrophotometry at a wavelength of 532 nm using malondialdehyde bis(dimethyl acetal) as the standard as per the assay protocol (Cell Biolabs, USA).

Assay [4] deals with A549 cells. Kind of assay: Nuclear p-Smad3 T179 and RNA polymerase II pS2/S5 after TGF-β1, fractionation and western blot. As to conditions: compound k 5 μM, senexin A 5 μM, pirfenidone 1 mM; TGF-β1 10 ng/ml 3 h. The assay is classed as cell-based, human. As to the method: FIGS. 8A-8B show the inhibitory effects of cellular distributions of TGF-β1-induced p-Smad3 T179, RNA polymerase II pS2/S5, and Smad3 after treatment with compound k. Human alveolar epithelial A549 cells were incubated with compound k (5 μM), senexin A (5 μM), or pirfenidone (1 mM) for 1 h, followed by stimulation with TGF-β1 (10 ng/ml) for 3 h. Protein expressions in the cytoplasmic and nuclear fractions were subjected to a Western blot analysis using the indicated antibodies. α-Tubulin and histone H3 served as loading controls for the cytoplasmic and nuclear fractions, respectively. Results are shown as the mean±SEM of three independent experiments. **p<0.01 and ***p<0.001 compared to the control group; #p<0.05 and ##p<0.01 compared to the TGF-β1-treated group.
as §1
A Nuclear/Cytosol Fractionation Kit (Biovision, USA) was used to separate the cytosolic and nuclear fractions. […]

With `CNC(=O)c1ccc(NS(=O)(=O)c2ccc3c(c2)C(=C(C)C)C(=O)N3)cc1F` [Compound l, 2-Fluoro-N-methyl-4-((2-oxo-3-(propan-2-ylidene)indoline)-5-sulfonamido)benzamide], at CDK8, the “CDK8 Inhibition percentage at 10 μM” value worked out at 92% and the IC50 is 0.652 µM.

With `CC(C)=C1C(=O)Nc2ccc(S(=O)(=O)Nc3ccc(NC(=O)c4ccccc4)cc3)cc21` [Compound c, N-(4-((2-Oxo-3-(propan-2-ylidene)indoline)-5-sulfonamido)phenyl)benzamide], the “CDK8 Inhibition percentage at 10 μM” value on CDK8 is given as 33%.

Regarding `CC(C)=C1C(=O)Nc2ccc(S(=O)(=O)Nc3nc4ccccc4s3)cc21` [Compound h, N-(Benzo[d]thiazol-2-yl)-2-oxo-3-(propan-2-ylidene)indoline-5-sulfonamide], on CDK8, the inhibition at 10 µM stood at 91% and the IC50 was determined as 0.87 µM.

As to `CC(C)=C1C(=O)Nc2ccc(S(=O)(=O)Nc3ccc(C(=O)c4ccccc4)cc3)cc21` [Compound d, N-(4-Benzoylphenyl)-2-oxo-3-(propan-2-ylidene)indoline-5-sulfonamide], on CDK8, the inhibition at 10 µM stood at 99% and the IC50 amounted to 0.38 µM.

As for `CC(C)=C1C(=O)Nc2ccc(S(=O)(=O)Nc3ccc(Nc4ccccc4)cc3)cc21` [Compound b, 2-Oxo-N-(4-(phenylamino)phenyl)-3-(propan-2-ylidene)indoline-5-sulfonamide], on CDK8, the inhibition at 10 µM turned out to be 76% and the IC50 came out at 1.57 µM. Also, the “inhibition of cell migration” value with A549 cells [1] is listed as “less inhibition”. The “TGF-β1-triggered EMT protein expressions” value in the assay with A549 cells [2] is recorded as “slight reduction”. Besides, the “TGF-β1-caused oxidative stress (MDA and Nox4 levels)” value in the assay on A549 cells [3] is “less-potent inhibition”.

`CC(C)=C1C(=O)Nc2ccc(S(=O)(=O)Nc3cc(-c4ccc(C)cc4)[nH]n3)cc21` [Compound f, 2-Oxo-3-(propan-2-ylidene)-N-(5-(p-tolyl)-1H-pyrazol-3-yl) indoline-5-sulfonamide]: at CDK8, the “CDK8 Inhibition percentage at 10 μM” value is recorded as 89% and the IC50 was determined as 0.798 µM.

On to `CNC(=O)c1cc(Oc2ccc(NS(=O)(=O)c3ccc4c(c3)C(=C(C)C)C(=O)N4)cc2)ccn1` [Compound j, N-Methyl-4-(4-((2-oxo-3-(propan-2-ylidene)indoline)-5-sulfonamido)phenoxy)picolinamide], for which, at CDK8, the “CDK8 Inhibition percentage at 10 μM” value is given as 85% and the IC50 came to 1.24 µM.

On to `CC(C)=C1C(=O)Nc2ccc(S(=O)(=O)Nc3nnc(-c4ccccc4)s3)cc21` [Compound g, 2-Oxo-N-(5-Phenyl-1,3,4-thiadiazol-2-yl)-3-(propan-2-ylidene) indoline-5-sulfonamide], for which, on CDK8, the “CDK8 Inhibition percentage at 10 μM” value came to 99% and the IC50 came out at 0.338 µM.

With `CC(C)=C1C(=O)Nc2ccc(S(=O)(=O)Nc3ccc(-n4ccnc4)cc3)cc21` [Compound i, N-(4-(1H-imidazol-1-yl)phenyl)-2-oxo-3-(propan-2-ylidene) indoline-5-sulfonamide], on CDK8, the “CDK8 Inhibition percentage at 10 μM” value is listed as 92% and the IC50 was found to be 0.945 µM.

For the compound `CC(C)=C1C(=O)Nc2ccc(S(=O)(=O)Nc3ccc(Oc4ccc([N+](=O)[O-])cc4)cc3)cc21` [Compound a, N-(4-(4-Nitrophenoxy)phenyl)-2-oxo-3-(propan-2-ylidene)indoline-5-sulfonamide], the inhibition at 10 µM at CDK8 amounted to 48%. Besides, the “inhibition of cell migration” value in the assay on A549 cells [1] is listed as “less inhibition”. Besides, the “TGF-β1-triggered EMT protein expressions” value in the assay with A549 cells [2] was “no significant reduction”. Besides, in the assay on A549 cells [3], the “TGF-β1-caused oxidative stress (MDA and Nox4 levels)” value is reported as “less-potent inhibition”.

On to `CC(C)=C1C(=O)Nc2ccc(S(=O)(=O)Nc3ccc(C)c(Nc4nccc(-c5cccnc5)n4)c3)cc21` [Compound m, N-(4-Methyl-3-((4-(pyridin-3-yl)pyrimidin-2-yl)amino)phenyl)-2-oxo-3-(propan-2-ylidene)indoline-5-sulfonamide], for which, on CDK8, the inhibition at 10 µM is 46%.

`CC(C)=C1C(=O)Nc2ccc(S(=O)(=O)Nc3cc(-c4ccccc4)[nH]n3)cc21` [Compound e, 2-Oxo-N-(5-phenyl-1H-pyrazol-3-yl)-3-(propan-2-ylidene)indoline-5-sulfonamide]: at CDK8, the inhibition at 10 µM was determined as 82% and the IC50 was found to be 1.64 µM.

Turning to `CC(C)=C1C(=O)Nc2ccc(S(=O)(=O)Nc3cccc4c(=O)[nH][nH]c(=O)c34)cc21` [Compound n, N-(1,4-Dioxo-1,2,3,4-tetrahydrophthalazin-5-yl)-2-oxo-3-(propan-2-ylidene)indoline-5-sulfonamide], on CDK8, the inhibition at 10 µM stood at 74% and the IC50 is 3 µM.

Consider `Cc1ccc(=O)n(-c2ccccc2)c1` [pirfenidone, reference compound], for which the “TGF-β1-triggered EMT protein expressions” value in the assay with A549 cells [2] is recorded as “slight inhibition”. Besides, in the assay with A549 cells [4], the “phosphorylation of p-Smad3 T179 and RNA Pol II pSer2/5” value is on record as “less-potent inhibition”.

In the case of `CC(=O)c1cccc(NS(=O)(=O)c2ccc3c(c2)C(=C(C)C)C(=O)N3)c1` [Reference Compound, N-(3-acetylphenyl)-2-oxo-3-(propan-2-ylidene)-indoline-5-sulfonamide, reference compound], on CDK8, the inhibition at 10 µM stood at 87% and the IC50 came out at 1.68 µM.
